Measured values taken from US5519042A, “Method of treating hyperproliferative vascular disease” (priority 1994, dated 1996).

System: injured carotid arteries
Assay: Effect on intimal thickening in injured carotid arteries (balloon catheter injury, morphometry)
Assay type: in vivo, male Sprague-Dawley (SD) rats
Conditions: for Intima Percent (±S.E.): mean ± standard error, untreated injured control 46.06 ± 16.36
Protocol: The effect of N-(4-trifluoromethylphenyl)-5-methylisoxazole-carboxamide (compound I) on hyperproliferative vascular disease was established in an in vivo standard pharmacological test procedure that emulates the hyperproliferative effects observed in mammals that are undergoing intimal smooth muscle proliferation and are therefore developing restenosis. Cyclosporin A was also evaluated in these test procedure for the purpose of comparison.
Compound 1 was also evaluated in an in vivo standard pharmacological test procedure that emulates the vascular injury suffered and restenosis that develops following percutaneous transluminal coronary angioplasty in humans.
Intimal smooth muscle proliferation was produced by balloon catheter injury to the left carotid artery of groups of 6, male Sprague-Dawley (SD) rats. […] A balloon catheter (2 French Fogarty, Edwards Laboratories, Santa Anna, Calif.) was passed through the external carotid artery into the aorta. The balloon was then inflated with an amount of water sufficient to distend the common carotid artery and was then pulled back to the external carotid artery. The inflation and pull back were repeated three times. This procedure leads to complete denudation of the endothelium throughout the common carotid artery, and also some injury typically occurs to the medial smooth muscle cells.
During a 17-days period (3 days before operation to 13 days after operation), these rats were divided into 2 groups of 6 animals and treated daily with compound 1 (20 mg/kg/day, intraperitoneal (i.p.)) or cyclosporin A (3 mg/kg/day; i.p.).
An injured group not treated with any drug was used as an injured control to establish the amount of intimal thickening in the absence of treatment. The right carotid was used as an uninjured control in all groups.
After the 14 day post-operative period, the rats were sacrificed, the carotids removed. The mean areas of the intima, media and total blood vessel wall were measured by morphometry. The injured artery was also examined using histopathologic assays. Results are presented as an intima percent, expressed as follows: [formula]

Row | Molecule | decrease in the mean percentage intimal thickening compared with the untreated injured control group (20 mg/kg/day i.p.) [%] | Intima Percent (±S.E.) (20 mg/kg/day i.p., 3 days before to 13 days after operation) [%] | reduction in intimal thickening (in words) (3 mg/kg/day i.p.) | Intima Percent (±S.E.) (3 mg/kg/day i.p., 14 days) [%]
1 | Cc1oncc1C(=O)Nc1ccc(C(F)(F)F)cc1 [Compound 1, N-(4-trifluoromethylphenyl)-5-methylisoxazole-4-carboxamide] | 83 | 7.88 ± 7.88 |  | 
2 | Cyclosporin A |  |  | failed to produce any meaningful reduction in intimal thickening | 39.39 ± 26.06
